What was measured:
[1] = test system: Rattus norvegicus; details: for NOAEL: hematological
[2] = test system: Apis mellifera; details: acute; duration: 48 hours; dermal; mortality
[3] = test system: Typhlodromus pyri; details: chronic/long-term
[4] = test system: Canidae; details: chronic; duration: 1 years; oral; Dog Other; hematological
[5] = test system: Tagia sp.; details: acute; duration: 14 days; mortality
[6] = test system: Daphnia magna; details: chronic/long-term; duration: 21 days; reproduction
[7] = test system: Colinus virginianus; details: for LD50: acute, oral, mortality
[8] = test system: Pimephales promelas; details: chronic/long-term; duration: 36 days; growth
[9] = test system: Lepomis macrochirus; details: acute; duration: 96 hours; mortality
[10] = test system: Aphidius rhopalosiphi; details: chronic/long-term

In the case of `O=C(NC(=O)c1ccccc1Cl)Nc1ccc(OC(F)(F)F)cc1` [Triflumuron], the LD50 ([1]; acute, oral, mortality) is reported as > 5000 mg/kg-day, the NOEC ([1]; chronic) is reported as 142 mg/kg-day and the NOAEL ([1]; chronic, duration: 2 years) is reported as 0.82 mg/kg-day. For the same compound, the NOAEL ([1]; subchronic, duration: 90 days, oral) was 3.6 mg/kg-day, the LD50 [2] was > 200 µg/piece and the LEL ([3]; duration: 7 days, mortality) was 384 g/ha. For the same compound, the LEL ([3]; reproduction) was 384 g/ha, the NOAEL [4] was 1.42 mg/kg-day and the LC50 [5] was > 500 mg/kg. The NOEC [6] was 3.2e-05 mg/L, the LD50 ([7]; diet) was > 805 mg/kg-day and the LD50 [7] was 561 mg/kg-day. For the same compound, the NOEC ([7]; reproduction developmental) was 1.65 mg/kg-day, the NOEC [8] was ≥ 0.0228 mg/L and the LC50 [9] was > 0.0208 µg/mL. The LEL ([10]; mortality) was 300 g/ha and the LEL ([10]; reproduction) was 300 g/ha.

From EPA's ToxValDB 9.5 (doi:10.2903/j.efsa.2009.194r)
